The text below walks through data of US20220220125A1, “FUSED ISOINDOLIN-1-ONE DERIVATIVES USEFUL AS GRK2 INHIBITORS” (Janssen Pharmaceutica NV, priority 2019, published 2022).

For orientation: IC50 means the concentration that gives 50% inhibition.

For this test, the target named is T1, GRK2 (Homo sapiens, UniProt P25098).
T1 sequence (P25098 1-689): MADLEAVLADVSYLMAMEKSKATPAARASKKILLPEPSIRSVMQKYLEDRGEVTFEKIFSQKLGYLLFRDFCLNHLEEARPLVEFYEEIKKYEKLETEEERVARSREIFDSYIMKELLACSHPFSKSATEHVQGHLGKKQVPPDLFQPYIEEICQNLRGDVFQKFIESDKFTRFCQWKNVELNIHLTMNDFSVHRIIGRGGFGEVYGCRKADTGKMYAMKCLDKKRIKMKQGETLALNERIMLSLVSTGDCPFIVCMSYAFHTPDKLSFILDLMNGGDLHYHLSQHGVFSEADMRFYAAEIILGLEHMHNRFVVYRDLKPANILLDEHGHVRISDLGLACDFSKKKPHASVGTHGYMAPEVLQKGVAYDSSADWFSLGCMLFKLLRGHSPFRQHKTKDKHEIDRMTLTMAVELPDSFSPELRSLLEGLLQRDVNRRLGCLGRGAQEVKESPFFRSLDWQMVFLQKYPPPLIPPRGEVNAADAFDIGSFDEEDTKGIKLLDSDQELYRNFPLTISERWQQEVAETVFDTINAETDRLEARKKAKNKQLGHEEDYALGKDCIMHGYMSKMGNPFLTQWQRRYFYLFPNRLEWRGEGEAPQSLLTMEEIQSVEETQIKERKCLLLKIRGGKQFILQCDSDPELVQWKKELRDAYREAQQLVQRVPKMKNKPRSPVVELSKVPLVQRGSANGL
Put plainly: hGRK2 LANCE Ultra in vitro kinase assay. The test is classed as biochemical. As to conditions: 10 nM GRK2; ATP 30 or 600 μM (not stated which); read-out: GRK2 Lancer IC50. As for the experimental part: hGRK2 LANCER In Vitro Assay
This assay is sensitive and requires as low as 10 nM enzyme, in a total volume of 10 μL. In addition, the ATP concentration can be varied over a broad range, without interfering with the assay or changing the assay condition. […] Testing inhibitors routinely at both high and low ATP concentrations also enables identification of potential non-ATP competitive inhibitors.
This assay measures IC50 values of test compounds (inhibitors) by monitoring GRK2 enzymatic activity at varying inhibitor concentrations.
Test compounds were dissolved in DMSO at 1 mM and were 3-fold serial diluted. The compound DMSO solutions were then added (100 nL) into a plate well using an acoustic dispenser. To each well was then added 20 nM GRK2 (5 μL) in assay buffer (20 mM HEPES, pH 7.5, 10 mM MgCl2, 0.001% Tween-20). The plate was sealed and centrifuged at 1000 rpm for 1 min. The plate and wells containing a mixture of GRK2 and test compound were incubated at ambient temperature for 30 min (prior to initializing the enzymatic reaction).
Enzyme reactions were initiated by the addition of 4.9 μL Substrates/Eu-Ab mix to each well. […] Final concentrations of reagents in the assays were as follows: 20 mM HEPES, pH 7.5; 10 mM MgCl2; 0.001% Tween-20 (w/v); 30 or 600 μM ATP; 200 nM ULight-peptide; 4 nM Eu-Ab; 10 nM GRK2; and 1% DMSO.
The plates were sealed and centrifuged at 1000 rpm for 1 min. For reactions at low ATP concentration (30 μM), reaction mixtures were incubated at ambient temperature for 120 min. For reactions at high ATP concentration (600 μM), reaction mixtures were incubated at ambient temperature for 60 min.
The enzyme reactions were quenched by addition of 10 μL of 12 mM EDTA in 1× LANCE detection solution to each well. The plates were then incubated at ambient temperature for 30 min. Time-resolved fluorescence signal of reactions were read on an EnVision or PHERAstar plate reader with the following parameters: Excitation wavelength=337 nm, emission wavelength (donor)=620 nm; emission wavelength (acceptor)=665 nm.
The raw HTRF data were converted to % active as follows:
% active=(sample−NC)/(PC−NC)*100
where NC is the mean of negative control (reactions without GRK2), and PC is the mean of positive control (reactions with GRK2 but without inhibitor). IC50 values were determined from a 4-parameter fit, using the following equation:
Y=Bottom+(Top−Bottom)/(1+10^((Log IC50-X)*Hill slope)),
where X=log10 of the compound concentration.
For `COc1cc(F)cc(C2CCCCC3c4ccc(-c5cn[nH]c5)cc4C(=O)N23)c1` (stereo not drawn) [Compound 4], the IC50 amounted to 9 nM.
The figure for `COc1cccc(C2CCCCC3c4ccc(-c5cn[nH]c5)cc4C(=O)N23)c1` (single isomer, unassigned) [Compound 5] is 11 nM; for `COc1cccc([C@H]2COC/C=C\CC3c4ccc(-c5cn[nH]c5)nc4C(=O)N32)c1` (mixture of isomers) [Compound 14] it is 1010 nM; for `O=C1c2cc(-c3cn[nH]c3)ccc2C2CCCCC(c3cccc(O)c3)N12` (single isomer, unassigned) [Compound 2, (7S*)-7-(3-hydroxyphenyl)-3-(1H-pyrazol-4-yl)-7,8,9,10,11,11a-hexahydro-5H-azepino[2,1-a]isoindol-5-one] it is 8 nM.
With `COc1cccc(N2CCCCC3c4ccc(-c5cn[nH]c5)cc4C(=O)N32)c1` (racemic) [Compound 15, (Rac)-1-(3-methoxyphenyl)-8-(1H-pyrazol-4-yl)-1,2,3,4,5,5a-hexahydro-10H-[1,2]diazepino[7,1-a]isoindol-10-one], the IC50 was determined as 6 nM.
Consider `O=C1c2cc(-c3cn[nH]c3)ccc2C2CCCCC(c3cccc(O)c3)N12` (single isomer, unassigned) [Compound 6, (7R*)-7-(3-hydroxyphenyl)-3-(1H-pyrazol-4-yl)-7,8,9,10,11,11a-hexahydro-5H-azepino[2,1-a]isoindol-5-one], for which the IC50 is 12 nM.
The figure for `COc1cc(F)cc(C2CCCCC3c4ccc(-c5cn[nH]c5)cc4C(=O)N23)c1` (stereo not drawn) [Compound 7] is 24 nM; for `COc1cccc([C@H]2COCCCCC3c4ccc(-c5cn[nH]c5)cc4C(=O)N32)c1` (mixture of isomers) [Compound 9] it is 1400 nM.
The figure for `COc1cccc(C2CCCCC3c4ccc(-c5cn[nH]c5)cc4C(=O)N23)c1` (single isomer, unassigned) [Compound 1, (7R*)-7-(3-methoxyphenyl)-3-(1H-pyrazol-4-yl)-7,8,9,10,11,11a-hexahydro-5H-azepino[2,1-a]isoindol-5-one] is below 5 nM; for `COc1cccc([C@H]2COC/C=C\CC3c4ccc(-c5cn[nH]c5)cc4C(=O)N32)c1` (mixture of isomers) [Compound 8] it is 166 nM.
As for `COc1cccc(C2CCCCC3c4ccc(-c5cn[nH]c5)cc4C(=O)N23)c1` (single isomer, unassigned) [Compound 3, (7S*)-7-(3-methoxyphenyl)-3-(1H-pyrazol-4-yl)-7,8,9,10,11,11a-hexahydro-5H-azepino[2,1-a]isoindol-5-one], the IC50 worked out at 9 nM.
The figure for `COc1cccc(N2CC=CCC3c4ccc(-c5cn[nH]c5)cc4C(=O)N32)c1` (racemic) [Compound 16, 1-(3-methoxyphenyl)-8-(1H-pyrazol-4-yl)-1,2,5,5a-tetrahydro-10H-[1,2]diazepino[7,1-a]isoindol-10-one] is 8 nM.
